Results on one molecule are retold here after paper PMC5552880, “The Bitter Taste Receptor TAS2R16 Achieves High Specificity and Accommodates Diverse Glycoside Ligands by using a Two-faced Binding Pocket” (Scientific Reports, 2017).

Common to all, as to format: cell-based
Holding throughout (conditions): 3 mM salicin, mean (range, max-min), n=3

The target of one test is T1, Y14H TAS2R16 (Homo sapiens, UniProt Q9NYV7, Y14H).
T1 construct: FLAG (N); expressed in transfected cells; host or cells: HEK-293T
Kind of test: Ca2+ flux assay, mutation library clone Y14H. Here is the method: (§1) The TAS2R16 mutation library was tested for function using a Ca^2+ flux assay as described previously. Later screens of individual TAS2R16 mutant clones used 4-nitrophenyl-β-D-glucopyranoside. Briefly, HEK-293T cells, in poly-lysine coated, black 384-well plates with clear bottoms (Costar), were transfected with the TAS2R16 mutation library, and a plasmid expressing a Gα16 chimera containing the last 44 amino acids of rat gustducin (Gα16gust44). Cells were incubated for 22 hours at 37 °C then washed twice with a calcium indicator dye in HBSS containing 20 mM HEPES (Calcium 4 Assay kit, Molecular Devices), incubated with HBSS for 1.5 hr, then moved to a Flexstation II-384 (Molecular Devices) set at 32 °C. […] Concentrations for mutation library screening were chosen to be approximately 2 to 3 times higher than the EC50 values for the ligands to maximize the sensitivity of detecting decreases in signaling due to the mutation in each clone.
(§2) For Ca^2+ flux assays, the value of fluorescence at 30 seconds after ligand addition (the time of peak signal for wild-type TAS2R16) was used as the maximum value. […] Data sets were analyzed and represented as percentage over baseline signal. Mean and standard deviation values were calculated for each clone from replicate assay data.
For orientation: Calcium flux is commonly read through the fluorescence of an indicator in the cells.

The target of another test is T2, Q24R TAS2R16 (Homo sapiens, UniProt Q9NYV7, Q24R).
T2 construct: FLAG (N); expressed in transfected cells; host or cells: HEK-293T
The test is described as follows: Ca2+ flux assay, mutation library clone Q24R. Here is the method:
as §1, §2

The target of a further test is T3, R56P TAS2R16 (Homo sapiens, UniProt Q9NYV7, R56P).
T3 construct: FLAG (N); expressed in transfected cells; host or cells: HEK-293T
Kind of test: Ca2+ flux assay, mutation library clone R56P. Here is the method:
as §1, §2

Another test concerns the target T4, W61R TAS2R16 (Homo sapiens, UniProt Q9NYV7, W61R).
T4 construct: V5; expressed in transfected cells; host or cells: HEK-293T
Kind of test: Ca2+ flux assay, mutation library clone W61R. Here is the method:
as §1, §2

The next test deals with T5, M64R TAS2R16 (Homo sapiens, UniProt Q9NYV7, M64R).
T5 construct: Each construct in the mutation library was tested for full-length TAS2R16 translation; V5; expressed in transfected cells; host or cells: HEK-293T
Kind of test: Ca2+ flux assay, mutation library clone M64R. As to the method:
as §1, §2

In another test the target is T6, C104R TAS2R16 (Homo sapiens, UniProt Q9NYV7, C104R).
T6 construct: Each construct in the mutation library was tested for full-length TAS2R16 translation; V5; expressed in transfected cells; host or cells: HEK-293T
The test is described as follows: Ca2+ flux assay, mutation library clone C104R. As to the method:
as §1, §2

A further test has as its target T7, L134R TAS2R16 (Homo sapiens, UniProt Q9NYV7, L134R).
T7 construct: Each construct in the mutation library was tested for full-length TAS2R16 translation; V5; expressed in transfected cells; host or cells: HEK-293T
Kind of test: Ca2+ flux assay, mutation library clone L134R. As to the method: as §1, §2

A further test has as its target T8, N172K TAS2R16 (Homo sapiens, UniProt Q9NYV7, N172K).
T8 construct: Each construct in the mutation library was tested for full-length TAS2R16 translation; V5; expressed in transfected cells; host or cells: HEK-293T
The test is described as follows: Ca2+ flux assay, mutation library clone N172K. As to the method: as §1, §2

A further test addresses T9, M271R TAS2R16 (Homo sapiens, UniProt Q9NYV7, M271R).
T9 construct: Each construct in the mutation library was tested for full-length TAS2R16 translation; V5; expressed in transfected cells; host or cells: HEK-293T
The test is described as follows: Ca2+ flux assay, mutation library clone M271R. As to the method: as §1, §2

Another test deals with T10, L276R TAS2R16 (Homo sapiens, UniProt Q9NYV7, L276R).
T10 construct: V5; expressed in transfected cells; host or cells: HEK-293T
The test is described as follows: Ca2+ flux assay, mutation library clone L276R. Here is the method: as §1, §2

Where “and” joins values, the source holds several entries; their conditions need not be identical. Equal values may be shown once.

T8 sequence (Q9NYV7 whole entry N172K): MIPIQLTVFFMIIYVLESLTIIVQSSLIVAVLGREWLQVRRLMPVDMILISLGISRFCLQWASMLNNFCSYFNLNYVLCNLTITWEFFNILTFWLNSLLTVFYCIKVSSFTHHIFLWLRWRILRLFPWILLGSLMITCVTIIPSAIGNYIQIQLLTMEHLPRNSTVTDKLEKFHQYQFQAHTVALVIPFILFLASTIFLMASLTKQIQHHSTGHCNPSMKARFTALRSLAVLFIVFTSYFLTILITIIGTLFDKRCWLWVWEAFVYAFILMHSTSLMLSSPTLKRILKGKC
T5 sequence (Q9NYV7 whole entry M64R): as the sequence (Q9NYV7 whole entry N172K) above, with M64R, K172N counted along it
T4 sequence (Q9NYV7 whole entry W61R): as the sequence (Q9NYV7 whole entry N172K) above, with W61R, K172N counted along it
T1 sequence (Q9NYV7 whole entry Y14H): as the sequence (Q9NYV7 whole entry N172K) above, with Y14H, K172N counted along it
T9 sequence (Q9NYV7 whole entry M271R): as the sequence (Q9NYV7 whole entry N172K) above, with K172N, M271R counted along it
T6 sequence (Q9NYV7 whole entry C104R): as the sequence (Q9NYV7 whole entry N172K) above, with C104R, K172N counted along it
T10 sequence (Q9NYV7 whole entry L276R): as the sequence (Q9NYV7 whole entry N172K) above, with K172N, L276R counted along it
T2 sequence (Q9NYV7 whole entry Q24R): as the sequence (Q9NYV7 whole entry N172K) above, with Q24R, K172N counted along it
T7 sequence (Q9NYV7 whole entry L134R): as the sequence (Q9NYV7 whole entry N172K) above, with L134R, K172N counted along it
T3 sequence (Q9NYV7 whole entry R56P): as the sequence (Q9NYV7 whole entry N172K) above, with R56P, K172N counted along it

On to `OCc1ccccc1O[C@@H]1O[C@H](CO)[C@@H](O)[C@H](O)[C@H]1O` [salicin], for which the “Ca2+ flux in response to salicin” value at Y14H TAS2R16 is on record as 9 (9) % of wild-type; at Q24R TAS2R16 it was 9 (9) % of wild-type; at R56P TAS2R16 it was 2 (1) % of wild-type; on W61R TAS2R16 it was 15 (7) % of wild-type; at M64R TAS2R16, 14 (1) % of wild-type; at C104R TAS2R16 it was 9 (1) % of wild-type. The “Ca2+ flux in response to salicin” value at L134R TAS2R16 was 1 (8) % of wild-type; on N172K TAS2R16, 83 (13) % of wild-type and 83 % of wild-type; at M271R TAS2R16, 7 (6) % of wild-type; on L276R TAS2R16, 17 (7) % of wild-type.
